Source: patent publication US20150126467A1, “USE OF ALGINATE OLIGOMERS TO ENHANCE THE EFFECTS OF ANTIFUNGAL AGENTS” (AlgiIPharma AS, priority 2011, published 2015)
≈ marks a conversion by molar mass, not a printed value. Where two headings read alike, the source gives them in different places.

Key:
Candida albicans = test: Robotic MIC assay with asthma/COPD medicaments (Example 5); assay type: cell-based; details: for effect on growth of C. albicans: at the given concentrations, data not shown; for influence on the MIC values of nystatin or amphotericin B in combination with OligoG CF5/20: ipratropium bromide and salbutamol at 0.01 mM and 1 mM, budesonide at 0.01 mM, formoterol at 0.5 mM
Protocol: A robotic MIC Assay was performed as follows. OligoG CF-5/20 were dissolved in medium (Mueller-Hinton broth or M19 broth depending on experiment) to 1.25 times of the desired assay concentrations (2, 6 and 10%). The antifungal agents under test were dissolved in medium without OligoG CF-5/20 and in medium with OligoG CF-5/20 at a concentration of 1.25 times the highest desired assay concentrations. For experiments where the effect of adding different concentrations of Na^+ was investigated, NaCl was dissolved in medium to the desired concentrations (10, 30 and 50 mM).
Two-fold serial dilutions of antifungal agents were made in medium with different concentrations of OligoG CF-5/20, and the solutions were placed in four parallel wells in Nunc 384-well micro plates (30 μl per well in Nunc 242757 microplates). A group of 8 wells with no addition of antifungal agents for each OligoG CF-5/20 concentration was included on each microplate as growth reference. To each well in the 384-well assay plates was added 7.5 μl of medium inoculated with a frozen stock culture of Candida albicans (strain CCUG 39343).
The micro plates were placed in plastic bags and incubated without shaking at 34° C. The optical density at 600 nm in the microwells was measured after approximately 13, 18, 24 and 34 hours of incubation, and the relative growth yield in each well was calculated based on the growth in the reference groups.
The robotic assay described in Example 1 was employed in this Example. […] The concentration utilized for the different components were based on information from Manocha et al. (2006).
In this assay only Mueller-Hinton broth was used since this is the medium specified for standardized MIC assays (Jorgensen et al., 1999).

[1] = system: Aspergillus niger CCUG 18919; test: Robotic MIC assay, Aspergillus (Example 4); assay type: cell-based; details: Aspergillus niger, CCUG18919, 48 h, Mueller-Hinton broth, read-out: Minimum Inhibitory Concentration (MIC)
Protocol: (§1) Aspergillus sp. was grown at 30° C. for 96 h on YM-agar. Spores and aerial mycelium was cut out from the agar, suspended in 1 ml YM-broth and dispersed with glass beads (1 mm) in a mini bead beater for 2 min. Glycerol was added to the suspension to 10% and frozen at −80° C.
(§2) Each batch of frozen stock culture was then characterized in separate growth experiments using Mueller-Hinton broth to determine the minimum amount of inoculum giving satisfactory growth after 48 h under the conditions relevant for the MIC assay. This inoculation procedure is used in order to reduce day to day variation in bioassays.
(§3) Robotic minimum inhibitory concentration (MIC) assay was performed as follows. OligoG CF-5/20 was dissolved in medium (Mueller-Hinton broth) to 1.25 times of the desired assay concentrations (2, 6 and 10%). […].
(§4) Two-fold serial dilutions of antifungal agents were made in medium with different concentrations of OligoG CF-5/20, and the solutions were placed in four parallel wells in Nunc 384-well micro plates (30 μl per well in Nunc 242757 microplates). A group of 8 wells with no addition of antifungal agents for each OligoG CF-5/20 concentration was included on each micro plate as growth reference. Each well in the 384-well assay plates was added 7.5 μl of the MH medium inoculated with frozen stock culture of the relevant strains.
(§5) The microplates were placed in plastic bags and incubated without shaking at 34° C. The optical density at 600 nm in the microwells was measured after approximately 24 and 48 hours of incubation. […]

[2] = system: Aspergillus flavus CCUG 28296; test: Robotic MIC assay, Aspergillus (Example 4); assay type: cell-based; details: Aspergillus flavus, CCUG23451 / CCUG28296, 48 h, Mueller-Hinton broth, read-out: Minimum Inhibitory Concentration (MIC)
Protocol: as §1, §2, §3, §4, §5

[3] = system: Aspergillus fumigatus CCUG 17460; test: Robotic MIC assay, Aspergillus (Example 4); assay type: cell-based; details: Aspergillus fumigatus, CCUG17460, 48 h, Mueller-Hinton broth, read-out: Minimum Inhibitory Concentration (MIC)
Protocol: as §1, §2, §3, §4, §5

[4] = system: various Aspergillus species; test: Robotic MIC assay, summary over species (Example 4); assay type: cell-based; details: Aspergillus species tested
Protocol: as §1, §2, §3, §4, §5

[5] = cited from earlier work

With CC(C)[N+]1(C)[C@@H]2CC[C@H]1C[C@@H](OC(=O)C(CO)c1ccccc1)C2.O.[Br-] (stereo partly shown) [Ipratropium bromide, ipratropium bromide monohydrate] the “effect on growth of C. albicans” value (Candida albicans) was “did not affect growth” and the “influence on the MIC values of nystatin or amphotericin B in combination with OligoG CF5/20” value (Candida albicans) was “do not significantly influence”.
With C[C@@H](c1ncncc1F)[C@](O)(Cn1cncn1)c1ccc(F)cc1F [Voriconazole, voriconazole] the MIC ([1]; A. niger CCUG 18919, 0% OligoG) was 0.25 µg/mL (≈ 0.716 µM), the MIC ([1]; A. niger CCUG 18919, 2% OligoG) was 0.0625 µg/mL (≈ 0.179 µM) and the MIC ([1]; A. niger CCUG 18919, 6% OligoG) was less than 0.0312 µg/mL. It also gave an MIC ([1]; A. niger CCUG 18919, 10% OligoG) of less than 0.0312 µg/mL, an MIC ([2]; A. flavus CCUG 23451, 0% OligoG) of 0.0625 µg/mL (≈ 0.179 µM) and an MIC ([2]; A. flavus CCUG 23451, 2% OligoG) of 0.0625 µg/mL (≈ 0.179 µM). The MIC ([2]; A. flavus CCUG 23451, 6% OligoG) was less than 0.0312 µg/mL, the MIC ([2]; A. flavus CCUG 23451, 10% OligoG) was less than 0.0312 µg/mL and the MIC ([3]; A. fumigatus CCUG 17460, 0% OligoG) was 0.125 µg/mL (≈ 0.358 µM). The MIC ([3]; A. fumigatus CCUG 17460, 2% OligoG) was 0.125 µg/mL (≈ 0.358 µM), the MIC ([3]; A. fumigatus CCUG 17460, 6% OligoG) was 0.0625 µg/mL (≈ 0.179 µM) and the MIC ([3]; A. fumigatus CCUG 17460, 10% OligoG) was 0.0312 µg/mL (≈ 0.0895 µM). The “effect of addition of OligoG CF-5/20 on MIC values” [4] was “reduction in MIC values”.
In the case of CCCC1O[C@@H]2C[C@H]3[C@@H]4CCC5=CC(=O)C=C[C@]5(C)[C@H]4[C@@H](O)C[C@]3(C)[C@]2(C(=O)CO)O1 (stereo partly shown) [budesonide], the solubility in water [5] is listed as “limited solubility in water”.
In the case of CC(C)(C)NCC(O)c1ccc(O)c(CO)c1 (stereo not shown) [salbutamol], the solubility in water [5] is given as “soluble in water”, the “effect on growth of C. albicans” value (Candida albicans) is given as “did not affect growth” and the “influence on the MIC values of nystatin or amphotericin B in combination with OligoG CF5/20” value (Candida albicans) is given as “do not significantly influence”.
